Legend:
[1] = Bidirectional transport assay, efflux ratio in Abcb1KO-MDCKII-Mock control cells; conditions: dog, MDCK, pH 7.4
Procedure: (§1) Eluent A consisted of 0.1% formic acid in water, eluent B consisted of 0.1% formic acid in acetonitrile. Then, 10 µL samples were injected into the HPLC-MS/MS system. Mass spectrometric detection was performed in SRM mode, and ion transitions for each analyte were optimized during method development. Samples were analyzed in pools, with each pool containing three to four analytes.

human MDR1 [2] = molecular target: T1, human MDR1 (Homo sapiens, UniProt P08183); assay: Bidirectional transport assay, efflux ratio in Abcb1KO-MDCKII hMDR1 cells; conditions: human, MDCK-MDR1, pH 7.4
T1 sequence (P08183 whole entry): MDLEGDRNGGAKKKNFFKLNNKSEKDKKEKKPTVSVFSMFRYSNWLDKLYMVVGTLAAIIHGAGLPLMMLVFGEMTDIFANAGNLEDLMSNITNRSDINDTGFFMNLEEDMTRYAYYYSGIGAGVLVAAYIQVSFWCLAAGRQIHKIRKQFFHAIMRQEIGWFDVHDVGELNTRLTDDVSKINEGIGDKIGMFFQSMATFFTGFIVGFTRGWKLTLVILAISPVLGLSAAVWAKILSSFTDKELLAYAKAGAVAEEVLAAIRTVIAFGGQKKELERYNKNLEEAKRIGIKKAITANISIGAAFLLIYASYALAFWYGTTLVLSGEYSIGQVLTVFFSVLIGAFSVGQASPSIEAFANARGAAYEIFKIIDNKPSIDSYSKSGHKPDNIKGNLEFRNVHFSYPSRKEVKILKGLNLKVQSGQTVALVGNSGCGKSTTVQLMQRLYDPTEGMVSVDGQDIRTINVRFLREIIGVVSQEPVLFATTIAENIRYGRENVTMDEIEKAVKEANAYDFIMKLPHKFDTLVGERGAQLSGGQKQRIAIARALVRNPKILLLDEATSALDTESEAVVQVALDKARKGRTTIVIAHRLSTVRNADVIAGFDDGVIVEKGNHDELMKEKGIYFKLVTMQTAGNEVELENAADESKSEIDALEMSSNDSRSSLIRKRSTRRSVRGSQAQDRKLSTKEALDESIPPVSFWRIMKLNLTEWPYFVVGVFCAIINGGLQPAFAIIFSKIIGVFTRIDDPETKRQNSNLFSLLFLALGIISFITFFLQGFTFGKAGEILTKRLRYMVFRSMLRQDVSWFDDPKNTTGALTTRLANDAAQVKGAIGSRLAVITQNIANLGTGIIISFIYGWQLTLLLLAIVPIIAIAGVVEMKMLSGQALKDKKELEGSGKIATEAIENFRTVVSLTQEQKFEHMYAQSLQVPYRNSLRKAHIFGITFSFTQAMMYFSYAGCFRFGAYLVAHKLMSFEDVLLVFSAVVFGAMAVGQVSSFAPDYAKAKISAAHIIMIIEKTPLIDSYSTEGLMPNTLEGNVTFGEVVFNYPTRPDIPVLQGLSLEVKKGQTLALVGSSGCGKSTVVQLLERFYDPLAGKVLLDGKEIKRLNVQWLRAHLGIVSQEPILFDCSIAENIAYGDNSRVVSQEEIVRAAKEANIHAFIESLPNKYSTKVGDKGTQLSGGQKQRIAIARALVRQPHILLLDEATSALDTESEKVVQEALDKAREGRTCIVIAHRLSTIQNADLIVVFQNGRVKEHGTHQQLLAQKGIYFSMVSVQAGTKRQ
Procedure: as §1

rat Mdr1a [3] = molecular target: T2, rat Mdr1a (Rattus norvegicus, UniProt Q6PSM0); assay: Bidirectional transport assay, efflux ratio in Abcb1KO-MDCKII rMDR1 cells; conditions: rat, pH 7.4
T2 sequence (Q6PSM0 1-1272): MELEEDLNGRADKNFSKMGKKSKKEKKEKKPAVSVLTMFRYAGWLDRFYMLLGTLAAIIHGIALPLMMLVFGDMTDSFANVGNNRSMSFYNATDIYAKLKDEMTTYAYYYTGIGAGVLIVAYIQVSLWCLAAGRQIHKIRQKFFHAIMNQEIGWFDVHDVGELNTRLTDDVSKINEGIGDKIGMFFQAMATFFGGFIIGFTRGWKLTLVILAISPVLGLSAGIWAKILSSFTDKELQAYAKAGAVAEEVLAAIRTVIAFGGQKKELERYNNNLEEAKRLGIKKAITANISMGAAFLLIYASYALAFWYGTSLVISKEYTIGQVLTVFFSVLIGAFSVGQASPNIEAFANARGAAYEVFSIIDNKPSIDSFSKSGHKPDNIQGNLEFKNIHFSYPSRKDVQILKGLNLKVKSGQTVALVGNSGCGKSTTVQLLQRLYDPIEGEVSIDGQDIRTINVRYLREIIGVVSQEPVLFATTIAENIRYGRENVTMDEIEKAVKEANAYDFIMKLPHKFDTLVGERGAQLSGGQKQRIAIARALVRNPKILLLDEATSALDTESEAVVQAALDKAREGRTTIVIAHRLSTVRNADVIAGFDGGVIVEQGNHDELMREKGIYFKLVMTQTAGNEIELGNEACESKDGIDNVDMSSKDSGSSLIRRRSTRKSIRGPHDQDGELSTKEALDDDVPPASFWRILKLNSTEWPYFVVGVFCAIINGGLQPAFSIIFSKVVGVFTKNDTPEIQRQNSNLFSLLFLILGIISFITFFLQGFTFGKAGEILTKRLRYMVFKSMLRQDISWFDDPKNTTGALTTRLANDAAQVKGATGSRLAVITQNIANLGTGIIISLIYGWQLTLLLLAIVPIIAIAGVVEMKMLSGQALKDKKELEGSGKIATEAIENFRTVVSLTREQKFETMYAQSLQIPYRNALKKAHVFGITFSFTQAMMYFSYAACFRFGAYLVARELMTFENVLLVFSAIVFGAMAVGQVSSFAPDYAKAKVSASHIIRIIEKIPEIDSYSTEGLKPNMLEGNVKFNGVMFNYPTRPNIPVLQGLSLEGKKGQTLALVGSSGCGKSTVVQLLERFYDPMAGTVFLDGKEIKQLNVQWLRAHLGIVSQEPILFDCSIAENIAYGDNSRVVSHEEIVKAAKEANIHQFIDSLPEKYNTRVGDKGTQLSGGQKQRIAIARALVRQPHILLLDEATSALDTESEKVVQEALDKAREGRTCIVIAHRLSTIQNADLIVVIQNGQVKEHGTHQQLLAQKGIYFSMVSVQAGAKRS
Procedure: as §1

mouse Mdr1a [4] = molecular target: T3, mouse Mdr1a (Mus musculus, UniProt P21447); assay: Bidirectional transport assay, efflux ratio in Abcb1KO-MDCKII mMDR1 cells; conditions: mouse, pH 7.4
T3 sequence (P21447 whole entry): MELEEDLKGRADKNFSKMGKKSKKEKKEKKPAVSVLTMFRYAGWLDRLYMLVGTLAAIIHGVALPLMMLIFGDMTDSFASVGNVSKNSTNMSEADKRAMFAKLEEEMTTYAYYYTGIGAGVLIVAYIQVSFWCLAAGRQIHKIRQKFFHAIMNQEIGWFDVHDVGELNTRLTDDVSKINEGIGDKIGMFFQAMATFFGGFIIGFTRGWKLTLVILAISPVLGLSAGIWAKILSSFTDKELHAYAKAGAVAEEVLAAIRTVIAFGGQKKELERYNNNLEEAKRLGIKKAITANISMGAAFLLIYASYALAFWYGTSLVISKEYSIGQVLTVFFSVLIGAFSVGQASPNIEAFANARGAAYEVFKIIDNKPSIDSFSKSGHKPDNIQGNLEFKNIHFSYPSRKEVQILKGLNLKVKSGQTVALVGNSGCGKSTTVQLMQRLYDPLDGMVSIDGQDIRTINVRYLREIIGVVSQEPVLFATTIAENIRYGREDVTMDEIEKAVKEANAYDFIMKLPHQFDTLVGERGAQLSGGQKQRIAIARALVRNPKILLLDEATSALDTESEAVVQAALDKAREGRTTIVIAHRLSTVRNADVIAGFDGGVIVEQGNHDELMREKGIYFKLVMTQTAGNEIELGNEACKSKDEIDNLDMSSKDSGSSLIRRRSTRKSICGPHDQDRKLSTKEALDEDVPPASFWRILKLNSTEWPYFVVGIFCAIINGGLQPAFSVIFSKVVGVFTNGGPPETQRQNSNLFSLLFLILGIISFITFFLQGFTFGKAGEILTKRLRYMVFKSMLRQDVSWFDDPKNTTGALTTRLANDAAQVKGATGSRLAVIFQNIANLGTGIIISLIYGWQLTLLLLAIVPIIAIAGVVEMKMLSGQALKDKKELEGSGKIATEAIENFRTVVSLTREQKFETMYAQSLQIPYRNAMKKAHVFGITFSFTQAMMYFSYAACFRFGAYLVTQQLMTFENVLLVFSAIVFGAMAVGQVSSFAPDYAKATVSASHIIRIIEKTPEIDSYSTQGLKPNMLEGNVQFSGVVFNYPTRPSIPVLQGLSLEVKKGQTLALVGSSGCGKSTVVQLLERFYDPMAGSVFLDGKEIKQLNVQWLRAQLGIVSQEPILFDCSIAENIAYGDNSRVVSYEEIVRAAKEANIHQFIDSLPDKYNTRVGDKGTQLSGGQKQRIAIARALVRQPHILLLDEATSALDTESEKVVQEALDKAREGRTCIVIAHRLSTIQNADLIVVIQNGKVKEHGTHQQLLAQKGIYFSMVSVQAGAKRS
Procedure: as §1

cynomolgus monkey Mdr1 [5] = molecular target: T4, cynomolgus monkey Mdr1 (Macaca fascicularis, UniProt Q8HZQ6); assay: Bidirectional transport assay, efflux ratio in Abcb1KO-MDCKII cyMDR1 cells; conditions: cynomolgus monkey, pH 7.4
T4 sequence (Q8HZQ6 1-1283): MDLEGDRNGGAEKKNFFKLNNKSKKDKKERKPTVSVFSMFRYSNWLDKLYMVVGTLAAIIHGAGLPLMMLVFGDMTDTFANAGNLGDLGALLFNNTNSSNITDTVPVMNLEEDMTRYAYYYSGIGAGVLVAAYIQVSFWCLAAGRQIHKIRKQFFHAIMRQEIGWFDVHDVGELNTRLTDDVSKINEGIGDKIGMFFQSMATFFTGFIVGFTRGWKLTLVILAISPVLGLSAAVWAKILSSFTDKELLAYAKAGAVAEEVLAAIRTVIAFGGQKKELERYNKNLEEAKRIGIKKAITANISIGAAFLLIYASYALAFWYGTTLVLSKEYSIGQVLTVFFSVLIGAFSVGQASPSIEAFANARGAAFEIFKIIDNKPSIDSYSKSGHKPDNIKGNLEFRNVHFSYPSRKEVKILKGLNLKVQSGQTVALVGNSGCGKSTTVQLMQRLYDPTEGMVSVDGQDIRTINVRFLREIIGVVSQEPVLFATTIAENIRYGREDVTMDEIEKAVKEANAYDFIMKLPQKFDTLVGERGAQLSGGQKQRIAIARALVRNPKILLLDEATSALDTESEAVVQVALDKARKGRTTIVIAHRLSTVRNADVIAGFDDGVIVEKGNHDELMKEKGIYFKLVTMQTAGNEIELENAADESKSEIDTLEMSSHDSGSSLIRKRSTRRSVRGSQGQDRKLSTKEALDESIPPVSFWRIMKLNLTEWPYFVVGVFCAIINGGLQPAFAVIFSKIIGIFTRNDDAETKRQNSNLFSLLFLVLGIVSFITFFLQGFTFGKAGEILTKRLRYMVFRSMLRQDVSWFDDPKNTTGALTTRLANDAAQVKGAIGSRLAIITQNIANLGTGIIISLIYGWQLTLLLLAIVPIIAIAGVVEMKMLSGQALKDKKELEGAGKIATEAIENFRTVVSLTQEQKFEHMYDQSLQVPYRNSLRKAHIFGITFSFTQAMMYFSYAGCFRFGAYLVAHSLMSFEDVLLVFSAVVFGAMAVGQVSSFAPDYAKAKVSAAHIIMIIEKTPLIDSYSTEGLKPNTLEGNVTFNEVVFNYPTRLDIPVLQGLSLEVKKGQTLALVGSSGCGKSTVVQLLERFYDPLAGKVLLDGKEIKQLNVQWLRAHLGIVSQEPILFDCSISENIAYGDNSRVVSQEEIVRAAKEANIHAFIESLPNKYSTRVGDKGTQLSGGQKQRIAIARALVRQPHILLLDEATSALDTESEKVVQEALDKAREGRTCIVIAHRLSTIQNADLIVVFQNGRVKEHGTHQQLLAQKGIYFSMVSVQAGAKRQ
Procedure: as §1

human BCRP = molecular target: T5, human BCRP (Homo sapiens, UniProt Q9UNQ0); assay: Bidirectional transport assay, efflux ratio in MDCKII-BCRP cells; conditions: human, pH 7.4
T5 sequence (Q9UNQ0 1-655): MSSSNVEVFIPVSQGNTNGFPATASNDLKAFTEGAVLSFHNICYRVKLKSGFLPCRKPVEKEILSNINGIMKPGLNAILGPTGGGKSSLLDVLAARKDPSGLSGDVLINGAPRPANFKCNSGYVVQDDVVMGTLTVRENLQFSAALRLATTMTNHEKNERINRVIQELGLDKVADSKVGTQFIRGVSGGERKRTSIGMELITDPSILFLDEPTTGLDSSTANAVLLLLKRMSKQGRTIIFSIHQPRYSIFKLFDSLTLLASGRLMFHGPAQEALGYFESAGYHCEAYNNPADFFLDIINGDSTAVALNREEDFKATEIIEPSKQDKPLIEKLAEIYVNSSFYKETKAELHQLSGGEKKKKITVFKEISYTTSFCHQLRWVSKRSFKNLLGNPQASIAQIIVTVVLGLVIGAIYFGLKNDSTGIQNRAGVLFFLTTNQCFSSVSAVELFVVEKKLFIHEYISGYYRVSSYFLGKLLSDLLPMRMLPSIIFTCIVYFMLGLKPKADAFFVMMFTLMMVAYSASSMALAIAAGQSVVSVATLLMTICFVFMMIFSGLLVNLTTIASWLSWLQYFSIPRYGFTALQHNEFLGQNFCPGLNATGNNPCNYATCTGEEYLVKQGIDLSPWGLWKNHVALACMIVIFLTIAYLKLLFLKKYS
Procedure: as §1

cynomolgus monkey Mdr1 [6] = molecular target: T4, cynomolgus monkey Mdr1; assay: cell-based
human MDR1 [7] = molecular target: T1, human MDR1; assay: Inhibition of 3H-digoxin or 3H-quinidine bidirectional transport in hMDR1 cells; conditions: IC50 from ER
cynomolgus monkey Mdr1 [8] = molecular target: T4, cynomolgus monkey Mdr1; assay: Inhibition of 3H-digoxin or 3H-quinidine bidirectional transport in cyMDR1 cells; conditions: Inhibition of quinidine transport IC50±SD, cyMDR1, probe 3H-quinidine 0.1 µM, 60 min; IC50 from ER
rat Mdr1a [9] = molecular target: T2, rat Mdr1a; assay: Inhibition of 3H-digoxin or 3H-quinidine bidirectional transport in rMDR1 cells; assay type: cell-based; design: rat Mdr1a (NM_133401.1); expressed in transfected cells; host or cells: Abcb1KO-MDCKII (canine kidney, endogenous Abcb1 knocked out), transduced, single-cell clone; conditions: IC50 from ER
mouse Mdr1a [10] = molecular target: T3, mouse Mdr1a; assay: Inhibition of 3H-digoxin or 3H-quinidine bidirectional transport in mMDR1 cells; assay type: cell-based; design: mouse Mdr1a (NM_011076.3); expressed in transfected cells; host or cells: Abcb1KO-MDCKII (canine kidney, endogenous Abcb1 knocked out), transduced, single-cell clone; conditions: IC50 from ER
[11] = Inhibition of digoxin transport IC50±SD, hMDR1, probe 3H-digoxin 1 µM, 120 min
[12] = Inhibition of quinidine transport IC50±SD, hMDR1, probe 3H-quinidine 1 µM, 60 min
[13] = Inhibition of digoxin transport IC50±SD, rMDR1, probe 3H-digoxin 1 µM, 120 min
[14] = Inhibition of quinidine transport IC50±SD, rMDR1, probe 3H-quinidine 1 µM, 30 min
[15] = Inhibition of digoxin transport IC50±SD, mMDR1, probe 3H-digoxin 1 µM, 120 min
[16] = Inhibition of quinidine transport IC50±SD, mMDR1, probe 3H-quinidine 1 µM, 60 min

Row | SMILES | efflux ratio at 120 min, 1 µM [1] | efflux ratio at 120 min, 1 µM (human MDR1 [2]) | efflux ratio at 120 min, 1 µM (rat Mdr1a [3]) | efflux ratio at 120 min, 1 µM (mouse Mdr1a [4]) | efflux ratio at 120 min, 1 µM (cynomolgus monkey Mdr1 [5]) | efflux ratio at 120 min, 1 µM (human BCRP) | IC50 (cynomolgus monkey Mdr1 [6]) [µM] | IC50 (human MDR1 [7]; [11]) [µM] | IC50 (human MDR1 [7]; [12]) [µM] | IC50 (cynomolgus monkey Mdr1 [8]) [µM] | IC50 (rat Mdr1a [9]; [13]) [µM] | IC50 (rat Mdr1a [9]; [14]) [µM] | IC50 (mouse Mdr1a [10]; [15]) [µM] | IC50 (mouse Mdr1a [10]; [16]) [µM]
1 | COc1ccccc1OCCNCC(O)COc1cccc2[nH]c3ccccc3c12 (stereo not drawn) [Carvedilol] | 0.62 ± 0.04 | 14.5 ± 0.62 | 2.13 ± 0.08 | 1.94 ± 0.21 | 1.12 ± 0.06 | 2.38 ± 0.23 | 1.55 ± 0.59 | 19.1 ± 7.45 | 0.41 ± 0.24 | 1.02 ± 0.79 | 4.22 ± 1 | 1.01 ± 0.13 | 2 ± 0.55 | 1.64 ± 0.9
2 | COc1cc2c(cc1OC)CN(CCc1ccc(NC(=O)c3cccc4c(=O)c5cccc(OC)c5[nH]c34)cc1)CC2 [Elacridar] |  |  |  |  |  |  | 0.09 ± 0.03 |  |  | 0.11 ± 0.08 | 0.32 ± 0.15 | 0.06 | 0.1 ± 0.07 | 0.2 ± 0.04
3 | CCOC(=O)C1=C(C)NC(C)=C(C(=O)OC)C1c1cccc(Cl)c1Cl (stereo not drawn) [Felodipine] |  |  |  |  |  |  | 12.4 ± 5.74 |  |  | 50.7 ± 19.7 | > 100 | 40.6 ± 7.71 | 28.6 ± 7.95 | > 100
4 | COC(=O)C1=C(C)NC(C)=C(C(=O)OC(C)C)C1c1cccc2nonc12 (stereo not drawn) [Isradipine] |  |  |  |  |  |  | 10.6 ± 4.73 | > 50 | 2.07 ± 1.28 | 19.3 ± 5.76 | 15.2 ± 2.84 | 13.6 ± 9.37 | 5.28 ± 2.94 | 19.3 ± 3.75
5 | CCC(C)n1ncn(-c2ccc(N3CCN(c4ccc(OCC5COC(Cn6cncn6)(c6ccc(Cl)cc6Cl)O5)cc4)CC3)cc2)c1=O (stereo not drawn) [Itraconazole] |  |  |  |  |  |  | 0.36 ± 0.19 |  |  | 0.32 ± 0.12 | 4.41 ± 1.05 | 0.15 ± 0.07 | 1.39 ± 0.5 | 0.48 ± 0.11
6 | CN(C)C(=O)C(CCN1CCC(O)(c2ccc(Cl)cc2)CC1)(c1ccccc1)c1ccccc1 [Loperamide] | 0.49 ± 0.03 | 48.7 ± 3.51 | 10.5 ± 2.34 | 16 ± 2.75 | 6.38 ± 0.55 | 2 ± 0.23 | 6.3 ± 2.27 | 38.3 ± 4.59 | 4.75 ± 0.32 | 1.36 ± 0.34 | 11.1 ± 4.28 | 1.01 ± 0.49 | 6.5 ± 1.1 | 0.96 ± 0.33
7 | COCC(=O)O[C@]1(CCN(C)CCCc2nc3ccccc3[nH]2)CCc2cc(F)ccc2[C@@H]1C(C)C [Mibefradil] |  |  |  |  |  |  | 4.84 ± 1.82 |  |  | 3.61 ± 2.04 | 7.42 ± 2.76 | 1.11 ± 0.21 | 7.15 ± 4.58 | 
8 | CCOC(=O)C1=C(C)NC(C)=C(C(=O)OC)C1c1cccc([N+](=O)[O-])c1 (stereo not drawn) [Nitrendipine] |  |  |  |  |  |  | 3.15 ± 1.7 | > 50 | > 50 | 17.5 ± 4.96 | 4.02 ± 1.64 | 6.34 ± 2.68 | > 50 | 15.7 ± 5.68
9 | C=C[C@H]1C[N@@]2CC[C@H]1C[C@@H]2[C@@H](O)c1ccnc2ccc(OC)cc12 [Quinidine] |  |  |  |  |  |  |  |  |  |  | 2.93 ± 1.43 |  | 15 ± 4.06 | 
